# Data published in patent US12661324B2, “Solid dispersion, pharmaceutical preparations, preparation method, and application thereof” (ASCENTAGE PHARMA (SUZHOU) CO., LTD., priority 2020, dated 2026).
# Experiments:
# [1] = Drug dissolution test, rotating basket method, 0.2% SDS solution; assay type: physicochemical; settings: 500 ml, 100 rpm
# Experimental: Drug dissolution test was performed on the solid dispersion (rotating basket method, 0.2% SDS solution, 500 ml, 100 rpm). […] Under the same conditions, the drug dissolution of API (compound prepared in example 1) in 10 min, 30 min and 60 min were 7%, 13% and 22% respectively.
# [2] = Equilibrium solubility test; assay type: physicochemical; settings: 37 °C, thermodynamic from solid
# Experimental: After 2 and 24 hours of high-speed centrifugation, the supernatant was taken, and the concentration of API in the supernatant was determined by high-performance liquid chromatography.
# [3] = Pharmacokinetic test in mice (Effect Example 3); assay type: in vivo; settings: mouse, plasma, po, male mice, single gavage
# Experimental: Four groups of male mice were randomly divided into two groups: test article 1 (solid dispersion prepared in Example 7 and suspension prepared with reverse osmosis water as solvent), the dosages are 25 mg/kg and 100 mg/kg respectively; test article 2 (API prepared in example 1 and suspension prepared with aqueous solution containing 0.2% HPMC-E5), the dosages are 25 mg/kg and 100 mg/kg, respectively. The animals in each group were administered by single gavage.
# All animals collected blood samples and separated plasma at 0.087 h, 0.25 h, 0.5 h, 1 h, 2 h, 4 h, 6 h, 8 h and 24 h after administration. All plasma samples were analyzed by LC-MS/Ms. the lower limit of quantification of the method was 10 ng/ml. The plasma concentration data were analyzed by non-compartmental model method (NCA) of metabolic kinetic data analysis software winnonlin8.0.0.3176, and the pharmacokinetic parameters were calculated to evaluate the kinetic characteristics of API in animals after administration.
# [4] = Solubility in aqueous medium pH 1-7; assay type: physicochemical; settings: aqueous buffer, thermodynamic from solid, 37° C. for 24 hours, acidic or neutral medium pH 1-7
# Source text: The compound of formula (I) is usually in crystalline form and has very low solubility. […] Even after high humidity (60%) and long-term (12 months) storage, the compound of formula (1) in the solid dispersion of the invention will not be transformed or degraded.
SMILES,drug dissolution ([1]; 10 min) [%],drug dissolution ([1]; 30 min) [%],drug dissolution ([1]; 60 min) [%],solubility at 2 h ([2]; FaSSIF) [µg/mL],solubility at 24 h ([2]; FaSSIF) [µg/mL],solubility at 2 h ([2]; FeSSIF) [µg/mL],solubility at 24 h ([2]; FeSSIF) [µg/mL],AUC(0-inf) ([3]; 25 mg/kg) [ng·h/mL],AUC(0-t) ([3]; 25 mg/kg) [ng·h/mL],Cmax ([3]; 25 mg/kg) [ng/mL],Tmax ([3]; 25 mg/kg) [h],half-life ([3]; 25 mg/kg) [h],AUC(0-inf) ([3]; 100 mg/kg) [ng·h/mL],AUC(0-t) ([3]; 100 mg/kg) [ng·h/mL],Cmax ([3]; 100 mg/kg) [ng/mL],Tmax ([3]; 100 mg/kg) [h],half-life ([3]; 100 mg/kg) [h],solubility at 24 h [4] [µg/mL]
"O=C(NS(=O)(=O)c1ccc(NC[C@H]2COCCO2)c([N+](=O)[O-])c1)c1ccc(N2CCN(CC3=C(c4ccc(Cl)cc4)CC4(CCC4)CC3)CC2)cc1Oc1cnc2[nH]ccc2c1 [API, 4-{4-{[6-(4-Chloro-phenyl)-spiro[3,5]nonane-6-ene-7-yl]methyl}-piperazine-1-yl}-N-{{3-nitro-4-[((2S)-[1,4]dioxane-2-ylmethyl)-amino]phenyl}sulfonyl}-2-(1H-pyrrolo[2,3-b]pyridin-5-yloxy)-benzamide]",7,13,22,1.3,0.6,2.5,0.5,637,384,82.2,3.33,7.41,1120,1100,105,1,3.7,–
"O=C(NS(=O)(=O)c1ccc(NC[C@H]2COCCO2)c([N+](=O)[O-])c1)c1ccc(N2CCN(CC3=C(c4ccc(Cl)cc4)CC4(CCC4)CC3)CC2)cc1Oc1cnc2[nH]ccc2c1 [compound of formula (I), 4-{4-{[6-(4-Chloro-phenyl)-spiro[3,5]nonane-6-ene-7-yl]methyl}-piperazine-1-yl}-N-{{3-nitro-4-[((2S)-[1,4]dioxane-2-ylmethyl)-amino]phenyl}sulfonyl}-2-(1H-pyrrolo[2,3-b]pyridin-5-yloxy)-benzamide]",–,–,–,–,–,–,–,–,–,–,–,–,–,–,–,–,–,0.3 to 0.6
